Source: the OligoGym collection
Bases are written 5' to 3'; sugars and linkages follow in the same order, as letters with counts (s phosphorothioate, o phosphodiester; PS: all linkages phosphorothioate). The collection does not say whether C is 5-methylated. l = locked nucleic acid (LNA); d = 2'-deoxy (DNA)

biological target: Tau; experiment: rat primary cortical neurons, FLIPR, 25 uM ASO

| Sequence | calcium oscillation score |
| --- | --- |
| TAACCAGCTAGTGGTGCCAC (sugars l3 d14 l3, PS) | 18.4 % of control |
| TAACTCAAATCAATTCTCAT (sugars l4 d12 l4, PS) | 63.9 % of control |
| TAACTCATCAACACCTTTTA (sugars l4 d14 l2, PS) | 82.6 % of control |
| TAACTCTCCTTATCTGA (sugars l2 d11 l4, PS) | 29.7 % of control |
| TAAGGCAAGGCCTATT (sugars l3 d10 l3, PS) | 27.2 % of control |
| TAAGTGATTAACCAATTAAC (sugars l3 d14 l3, PS) | 27.2 % of control |
| TAATAGATCTTTCCCCT (sugars l2 d12 l3, PS) | 103 % of control |
| TAATAGATCTTTCCCCTC (sugars l2 d13 l3, PS) | 101 % of control |
| TAATCACTCATGCCTT (sugars l4 d8 l4, PS) | 65.6 % of control |
| TAATCACTCATGCCTTA (sugars l4 d9 l4, PS) | 62.9 % of control |
| TAATCCTACCACCAGA (sugars l2 d10 l4, PS) | 86 % of control |
| TAATCCTGTGCTTC (sugars l3 d8 l3, PS) | 2.3 % of control |
| TAATCCTGTGCTTCA (sugars l3 d9 l3, PS) | 86.7 % of control |
| TAATCCTGTGCTTCAG (sugars l3 d10 l3, PS) | 75.8 % of control |
| TAATGAGCCACACTTGGAGG (sugars l3 d14 l3, PS) | 0 % of control |
| TAATTACATTTTTTCTTTTT (sugars l4 d12 l4, PS) | 58.2 % of control |
| TAATTAGAAACCTCCT (sugars l4 d8 l4, PS) | 73.3 % of control |
| TAATTATTAAATCTTCTCTT (sugars l4 d12 l4, PS) | 60.1 % of control |
| TAATTCACACAACAAACTA (sugars l4 d11 l4, PS) | 88.7 % of control |
| TAATTCATAAATGACTATAC (sugars l3 d14 l3, PS) | 72.5 % of control |
| TAATTCATTTAATTCTCTTC (sugars l4 d12 l4, PS) | 60.1 % of control |
| TAATTCCCAAATTCCTCATA (sugars l2 d14 l4, PS) | 53.9 % of control |
| TACAATCCACTCCTCC (sugars l2 d10 l4, PS) | 56.4 % of control |
| TACACCATCCAAGTCAA (sugars l3 d10 l4, PS) | 97 % of control |
| TACACCATCCAAGTCAATGC (sugars l3 d14 l3, PS) | 6.04 % of control |
| TACACTGTCCTTTAAAC (sugars l4 d11 l2, PS) | 66.1 % of control |
| TACAGTCATTTCATTAC (sugars l4 d9 l4, PS) | 64.9 % of control |

| Sequence | calcium oscillation score |
| --- | --- |
| TACAGTTGGCCCTACCATAT (sugars l3 d14 l3, PS) | 52.4 % of control |
| TACATGCGTCCTTT (sugars l3 d8 l3, PS) | 91.8 % of control |
| TACCAATTATCTTTAAATTC (sugars l4 d12 l4, PS) | 64.4 % of control |
| TACCATGTCGATGCT (sugars l3 d9 l3, PS) | 81.6 % of control |
| TACCCATCTTAATTCATTTA (sugars l3 d14 l3, PS) | 111 % of control |
| TACCCCATTTTTGACA (sugars l3 d11 l2, PS) | 60.9 % of control |
| TACCTTTTTATTTCCTC (sugars l4 d11 l2, PS) | 41.6 % of control |
| TACTAGCCCACCCATC (sugars l3 d10 l3, PS) | ≥ 200 % of control |
| TACTAGCCCACCCATCAATT (sugars l3 d14 l3, PS) | 54.4 % of control |
| TACTATCCACTTGTTA (sugars l3 d11 l2, PS) | 61.9 % of control |
| TACTTTATTCCCTTAACAAT (sugars l2 d14 l4, PS) | 91.3 % of control |
| TAGACCACATTTCCATC (sugars l3 d11 l3, PS) | 79.1 % of control |
| TAGACTATTTGCACACTGCC (sugars l3 d14 l3, PS) | 51.9 % of control |
| TAGACTCCTTCTTTAGGCTT (sugars l3 d14 l3, PS) | 45.2 % of control |
| TAGCAAACAGGATACA (sugars l3 d10 l3, PS) | 49.8 % of control |
| TAGCAGAGGAACGTGT (sugars l3 d10 l3, PS) | 40.7 % of control |
| TAGCCCACCCATCAATTTGG (sugars l3 d14 l3, PS) | 7.77 % of control |
| TAGCCCTAAAGTCC (sugars l3 d8 l3, PS) | 87.6 % of control |
| TAGCCCTAAAGTCCCAGGTC (sugars l3 d14 l3, PS) | 54 % of control |
| TAGGAGAGGAAGGTGG (sugars l3 d10 l3, PS) | 3.7 % of control |
| TAGTAAACACCATCTC (sugars l4 d9 l3, PS) | 77.2 % of control |
| TAGTAAACACCATCTCT (sugars l3 d10 l4, PS) | 71.4 % of control |
| TAGTCACTCTGGTG (sugars l3 d8 l3, PS) | 81.9 % of control |
| TAGTCACTCTGGTGA (sugars l3 d9 l3, PS) | 78.1 % of control |
| TAGTTATACAGTTGGCCCTA (sugars l3 d14 l3, PS) | 19.1 % of control |
| TATACAGTTGGCCCTACCAT (sugars l3 d14 l3, PS) | 16.7 % of control |
| TATCATATCCTAAGCA (sugars l3 d9 l4, PS) | 76 % of control |

| Sequence | calcium oscillation score |
| --- | --- |
| TATCATTTTCTTTTTCAAAA (sugars l4 d12 l4, PS) | 37.3 % of control |
| TATCCAGCCATATTTCAACT (sugars l3 d14 l3, PS) | 47.6 % of control |
| TATCCTTTGAGCCACACTTG (sugars l3 d14 l3, PS) | 11.7 % of control |
| TATCTGCAAACTCAAC (sugars l4 d8 l4, PS) | 98.9 % of control |
| TATCTTATTGCTTTCCA (sugars l2 d12 l3, PS) | 63 % of control |
| TATGTTTTTTAACTCCC (sugars l4 d11 l2, PS) | 94.3 % of control |
| TATTAATTATCTGCAC (sugars l3 d10 l3, PS) | 27.1 % of control |
| TATTAATTATCTGCACC (sugars l3 d10 l4, PS) | 50.9 % of control |
| TATTAATTCATAAATGACTA (sugars l3 d14 l3, PS) | 40.3 % of control |
| TATTATCCTTTGAGCCACAC (sugars l3 d14 l3, PS) | 77.4 % of control |
| TATTGAACTCACCCACT (sugars l2 d11 l4, PS) | 65.7 % of control |
| TATTGAACTCACCCACTC (sugars l2 d13 l3, PS) | 69 % of control |
| TATTGCTTTCCAATTCCC (sugars l4 d12 l2, PS) | 93.2 % of control |
| TATTGTCCAGGGACCC (sugars l3 d10 l3, PS) | 29.9 % of control |
| TATTGTCCAGGGACCCAATC (sugars l3 d14 l3, PS) | 33.2 % of control |
| TATTTACACTGTCCTTT (sugars l4 d9 l4, PS) | 52.1 % of control |
| TATTTATAGGTGCATA (sugars l3 d9 l4, PS) | 0 % of control |
| TATTTATTCTTTTTATTATT (sugars l4 d12 l4, PS) | 58.6 % of control |
| TATTTCAACTCTTAGCA (sugars l4 d10 l3, PS) | 59 % of control |
| TATTTCCAAATTCACTTTTA (sugars l1 d17 l2, PS) | ≥ 200 % of control |
| TATTTCCAAATTCACTTTTA (sugars l2 d16 l2, PS) | ≥ 200 % of control |
| TATTTCCAAATTCACTTTTA (sugars l3 d14 l3, PS) | ≥ 200 % of control |
| TATTTCCAAATTCACTTTTA (sugars l4 d10 l1 d2 l3, PS) | 127 % of control |
| TATTTCCAAATTCACTTTTA (sugars l4 d11 l5, PS) | 172 % of control |
| TATTTCCAAATTCACTTTTA (sugars l5 d10 l5, PS) | ≥ 200 % of control |
| TATTTCCAAATTCACTTTTA (sugars l5 d11 l4, PS) | 121 % of control |
| TATTTCCAAATTCACTTTTA (sugars ldlllddddddddddlldll, PS) | 145 % of control |

| Sequence | calcium oscillation score |
| --- | --- |
| TATTTCCAAATTCACTTTTA (sugars llddldldddddddddllll, PS) | 152 % of control |
| TATTTCCAAATTCACTTTTA (sugars llddlldddddddddldlll, PS) | 120 % of control |
| TATTTCCAAATTCACTTTTA (sugars llddlldddddddddlldll, PS) | 123 % of control |
| TATTTCCAAATTCACTTTTA (sugars lldlddldddddddddllll, PS) | 114 % of control |
| TATTTCCAAATTCACTTTTA (sugars lldldlddddddddddllll, PS) | 127 % of control |
| TATTTCCAAATTCACTTTTA (sugars lldldldddddddddldlll, PS) | 129 % of control |
| TATTTCCAAATTCACTTTTA (sugars lldldldddddddddlldll, PS) | 141 % of control |
| TATTTCCAAATTCACTTTTA (sugars lldllddddddddddlldll, PS) | 119 % of control |
| TATTTCCAAATTCACTTTTA (sugars lldlldddddddddlddlll, PS) | 76.7 % of control |
| TATTTCCAAATTCACTTTTA (sugars lldlldddddddddldldll, PS) | 110 % of control |
| TATTTCCAAATTCACTTTTA (sugars lldlldddddddddllddll, PS) | 114 % of control |
| TATTTCCAAATTCACTTTTA (sugars lllddldddddddddldlll, PS) | 147 % of control |
| TATTTCCAAATTCACTTTTA (sugars lllddldddddddddlldll, PS) | 127 % of control |
| TATTTCCAAATTCACTTTTA (sugars llldlddddddddddldlll, PS) | 129 % of control |
| TATTTCCAAATTCACTTTTA (sugars llldldddddddddlddlll, PS) | 125 % of control |
| TATTTCCAAATTCACTTTTA (sugars llldldddddddddldldll, PS) | 108 % of control |
| TATTTCCAAATTCACTTTTA (sugars llldldddddddddllddll, PS) | 135 % of control |
| TCAAAATCCTTAATTTAACC (sugars l4 d12 l4, PS) | 70.7 % of control |
| TCAAACACACCTTCATTTAC (sugars l2 d14 l4, PS) | 82.2 % of control |
| TCAAACTAATATTAACACT (sugars l4 d11 l4, PS) | 80.8 % of control |
| TCAAATCAATTCTCATTTCA (sugars l3 d13 l4, PS) | 62 % of control |
| TCAACATTACCCTTAAATAT (sugars l4 d13 l3, PS) | 82.4 % of control |
| TCAACTCTTAGCATCCA (sugars l4 d11 l2, PS) | 37.5 % of control |
| TCAACTCTTAGCATCCAC (sugars l2 d13 l3, PS) | 50 % of control |
